Tests used:
HDAC2 = HDAC2 (Homo sapiens (Human), UniProt Q92769); test: HDAC2glo assay; type: cell-based
HDAC6 = HDAC6 (Homo sapiens (Human), UniProt Q9UBN7); test: HDAC enzyme assay, HDAC6; type: biochemical
Experimental: Compounds for testing were diluted in DMSO to 50 fold the final concentration and a ten point three fold dilution series was made. The compounds were diluted in assay buffer (50 mM HEPES, pH 7.4, 100 mM KCl, 0.001% Tween-20, 0.05% BSA, 20 μM TCEP) to 6 fold their final concentration. The HDAC enzymes (purchased from BPS Biosciences) were diluted to 1.5 fold their final concentration in assay buffer. The tripeptide substrate and trypsin at 0.05 μM final concentration were diluted in assay buffer at 6 fold their final concentration. The final enzyme concentrations used in these assays were 3.3 ng/ml (HDAC1), 0.2 ng/ml (HDAC2), 0.08 ng/ml (HDAC3) and 2 ng/ml (HDAC6). The final substrate concentrations used were 16 μM (HDAC1), 10 μM (HDAC2), 17 μM (HDAC3) and 14 μM (HDAC6).
Five μl of compounds and 20 μl of enzyme were added to wells of a black, opaque 384 well plate in duplicate. Enzyme and compound were incubated together at room temperature for 10 minutes. Five μ1 of substrate was added to each well, the plate was shaken for 60 seconds and placed into a Victor 2 microtiter plate reader. The development of fluorescence was monitored for 60 min and the linear rate of the reaction was calculated. The IC50 was determined using Graph Pad Prism by a four parameter curve fit. The IC50 values obtained for several of the compounds of this invention are found in Table 1.

[1] = tested on: human CD34+ bone marrow cells; test: Cellular viability of cultured CD34+ bone marrow cells; settings: 1 μM, treatment for 4 days
H929 human myeloma cells = test: In vitro cell proliferation, MTS viability; type: cell-based; settings: up to 7 days, relative to Day 0
Experimental: Cellular viability was assessed using Aqueous One MTS reagent at Days 0 (immediately after seeding), 3, 5, and 7.

[2] = tested on: human erythroid, myeloid and megakaryocyte hematopoietic progenitors; test: Hematopoietic progenitor proliferation (colony) assay; type: cell-based; settings: compared with MS-275; 14-16 days in culture
Experimental: This study evaluated the potential effect of test compounds on human erythroid, myeloid and megakaryocyte hematopoietic progenitor proliferation in media formulations containing various cytokines. Normal human bone marrow light density cells derived from a normal bone marrow donor (Lonza, Md.) were used for these studies. Clonogenic progenitors of human erythroid (CFU-E, BFU-E) and granulocyte-monocyte (CFU-GM) lineages were assessed in a semi-solid methylcellulose-based media formulation containing rhIL-3 (10 ng/mL), rhGM-SCF (10 ng/mL), rhSCF (50 ng/mL) and Epo (3 U/mL). Clonogenic progenitors of human megakaryocyte lineage were assessed in a semi-solid collagen based matrix containing rhIL-3 (10 ng/mL), rhIL-6 (10 ng/mL) and rhTpo (50 ng/mL).
Compounds were added to the medium to give the final desired concentrations. […] Following 14-16 days in culture, myeloid and erythroid colonies were assessed microscopically and scored by trained personnel. […] The colonies were assessed and scored by trained personnel and divided into the following categories based on size; CFU-Mk (3-20), CFU-Mk (21-49) and CFU-Mk (≧50).
The mean±1 standard deviation of three replicate cultures was calculated for progenitors in both media formulations. […] A sigmoidal curve was then fit to the graph and from this curve the inhibitory concentration (μM) was then calculated using the Boltzman equation […]

HDAC3 = HDAC3 (Homo sapiens (Human), UniProt O15379); test: HDAC enzyme assay, HDAC3; type: biochemical
HDAC1 = HDAC1 (Homo sapiens (Human), UniProt Q13547); test: HDAC enzyme assay, HDAC1; type: biochemical
Sequence of HDAC1 (Q13547 whole entry): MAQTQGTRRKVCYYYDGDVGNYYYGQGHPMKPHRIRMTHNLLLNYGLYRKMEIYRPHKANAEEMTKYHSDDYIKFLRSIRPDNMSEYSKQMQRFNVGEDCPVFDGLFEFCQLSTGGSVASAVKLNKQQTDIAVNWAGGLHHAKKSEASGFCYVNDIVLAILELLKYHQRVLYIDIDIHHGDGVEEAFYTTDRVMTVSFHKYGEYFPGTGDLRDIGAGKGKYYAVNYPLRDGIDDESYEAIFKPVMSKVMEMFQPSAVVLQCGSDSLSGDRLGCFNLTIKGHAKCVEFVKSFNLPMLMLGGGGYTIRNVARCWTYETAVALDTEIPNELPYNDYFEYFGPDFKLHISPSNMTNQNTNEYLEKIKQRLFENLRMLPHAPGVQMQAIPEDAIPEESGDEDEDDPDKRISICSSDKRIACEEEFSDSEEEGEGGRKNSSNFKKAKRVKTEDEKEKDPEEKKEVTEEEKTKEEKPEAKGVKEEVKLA

Sequence of HDAC3 (O15379 whole entry): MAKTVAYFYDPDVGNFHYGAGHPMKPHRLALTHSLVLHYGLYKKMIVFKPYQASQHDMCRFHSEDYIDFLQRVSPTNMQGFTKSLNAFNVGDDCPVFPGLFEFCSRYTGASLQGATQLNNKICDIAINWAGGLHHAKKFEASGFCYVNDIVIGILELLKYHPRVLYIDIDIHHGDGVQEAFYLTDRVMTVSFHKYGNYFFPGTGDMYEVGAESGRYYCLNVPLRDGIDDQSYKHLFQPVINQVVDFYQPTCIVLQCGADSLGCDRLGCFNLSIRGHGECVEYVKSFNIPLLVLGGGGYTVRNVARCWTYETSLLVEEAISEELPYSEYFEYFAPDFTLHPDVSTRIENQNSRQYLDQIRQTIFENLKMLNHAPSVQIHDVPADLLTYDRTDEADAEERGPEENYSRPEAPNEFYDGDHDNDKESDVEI
Sequence of HDAC3 (Q9Y618 395-489 partner): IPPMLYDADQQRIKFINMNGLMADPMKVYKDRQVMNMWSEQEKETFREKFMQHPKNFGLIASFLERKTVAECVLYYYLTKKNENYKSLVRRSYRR
Sequence of HDAC6 (Q9UBN7 whole entry): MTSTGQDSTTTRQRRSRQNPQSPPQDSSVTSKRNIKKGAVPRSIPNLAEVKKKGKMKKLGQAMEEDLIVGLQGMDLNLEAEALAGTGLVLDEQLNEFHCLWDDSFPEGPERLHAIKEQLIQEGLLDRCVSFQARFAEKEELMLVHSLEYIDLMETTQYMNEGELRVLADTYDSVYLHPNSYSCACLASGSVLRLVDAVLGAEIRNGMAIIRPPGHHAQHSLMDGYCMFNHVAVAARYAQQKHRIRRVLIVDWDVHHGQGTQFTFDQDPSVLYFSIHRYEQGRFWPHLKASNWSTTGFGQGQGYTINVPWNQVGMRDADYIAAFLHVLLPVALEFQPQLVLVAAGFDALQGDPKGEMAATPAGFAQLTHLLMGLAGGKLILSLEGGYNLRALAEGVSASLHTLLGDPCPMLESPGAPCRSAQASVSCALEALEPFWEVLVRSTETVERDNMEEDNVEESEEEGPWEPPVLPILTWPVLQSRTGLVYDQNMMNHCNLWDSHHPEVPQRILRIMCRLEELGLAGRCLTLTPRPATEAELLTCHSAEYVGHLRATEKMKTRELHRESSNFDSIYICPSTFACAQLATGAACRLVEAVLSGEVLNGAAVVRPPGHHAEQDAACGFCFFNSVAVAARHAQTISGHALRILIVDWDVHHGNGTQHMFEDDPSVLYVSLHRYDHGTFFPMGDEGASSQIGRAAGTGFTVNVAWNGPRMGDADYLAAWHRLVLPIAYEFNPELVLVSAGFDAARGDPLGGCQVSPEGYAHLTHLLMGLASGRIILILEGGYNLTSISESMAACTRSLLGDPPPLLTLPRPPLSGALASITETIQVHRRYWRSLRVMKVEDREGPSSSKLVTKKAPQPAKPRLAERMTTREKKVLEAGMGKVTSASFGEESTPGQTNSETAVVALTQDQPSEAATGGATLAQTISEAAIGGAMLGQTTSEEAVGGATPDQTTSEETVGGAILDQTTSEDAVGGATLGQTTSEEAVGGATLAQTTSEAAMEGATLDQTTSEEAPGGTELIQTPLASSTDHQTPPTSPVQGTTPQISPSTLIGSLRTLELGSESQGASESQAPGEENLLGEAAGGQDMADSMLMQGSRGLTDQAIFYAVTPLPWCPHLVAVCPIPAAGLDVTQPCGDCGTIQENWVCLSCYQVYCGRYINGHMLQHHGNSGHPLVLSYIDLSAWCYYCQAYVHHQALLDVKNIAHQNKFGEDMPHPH
Sequence of HDAC2 (Q92769 whole entry): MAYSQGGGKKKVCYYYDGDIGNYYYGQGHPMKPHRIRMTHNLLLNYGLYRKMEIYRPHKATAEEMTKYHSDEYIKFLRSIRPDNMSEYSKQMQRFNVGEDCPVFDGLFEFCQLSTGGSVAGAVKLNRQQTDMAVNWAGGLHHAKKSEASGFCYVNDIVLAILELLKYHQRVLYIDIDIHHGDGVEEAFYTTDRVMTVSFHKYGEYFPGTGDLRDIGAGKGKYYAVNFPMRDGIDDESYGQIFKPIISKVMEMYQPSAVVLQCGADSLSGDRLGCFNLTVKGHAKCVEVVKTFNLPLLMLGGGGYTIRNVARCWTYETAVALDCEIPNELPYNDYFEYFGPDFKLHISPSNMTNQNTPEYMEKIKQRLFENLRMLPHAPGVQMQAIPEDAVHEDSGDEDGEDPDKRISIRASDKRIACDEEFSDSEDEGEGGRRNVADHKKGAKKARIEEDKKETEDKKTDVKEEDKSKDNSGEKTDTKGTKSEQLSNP

Question: `O=C(NO)c1cnc(NC2(c3ccccc3)CCN(C(=O)Nc3ccccc3)CC2)nc1` [Compound 001, N-hydroxy-2-((4-phenyl-1-(phenylcarbamoyl)piperidin-4-yl)amino)pyrimidine-5-carboxamide] was tested. Which “concentration at which maximal HDAC2 inhibition was reached” value (HDAC2) did it give?
Answer: The value was 3 to 4 µM.

Question: And the IC50 (HDAC6)?
Answer: Its IC50 is 1.9 nM.

Question: What about the “decrease in cells viability” value [1] of the same compound?
Answer: Its value is 1.2 fold.

Question: And the “doses resulting in a net decrease in the viability of H929 cells” value (H929 human myeloma cells)?
Answer: The value was “over 3 uM”.

Question: And the “cytotoxicity against erythroid, myeloid and megakaryocytes” value [2]?
Answer: The value was “significantly less cytotoxicity”.

Question: What about the IC50 (HDAC3) of the same compound?
Answer: The IC50 was 1010 nM.

Question: What about the IC50 (HDAC1) of the same compound?
Answer: Its IC50 is 38 nM.

Question: And the “selectivity for HDAC1 and 2” value (HDAC1; relative to HDAC3)?
Answer: Its value is 30 fold.
